{"source": "patent US9126938B2", "about": "“Phosphatidylcholine transfer protein inhibitors” (The Brigham and Women's Hospital, Inc., priority 2009, dated 2015)", "key": {"[1]": {"target": "T1, StarD7 (Homo sapiens, UniProt Q9NQZ5)", "T1 sequence (Q9NQZ5 78-370)": "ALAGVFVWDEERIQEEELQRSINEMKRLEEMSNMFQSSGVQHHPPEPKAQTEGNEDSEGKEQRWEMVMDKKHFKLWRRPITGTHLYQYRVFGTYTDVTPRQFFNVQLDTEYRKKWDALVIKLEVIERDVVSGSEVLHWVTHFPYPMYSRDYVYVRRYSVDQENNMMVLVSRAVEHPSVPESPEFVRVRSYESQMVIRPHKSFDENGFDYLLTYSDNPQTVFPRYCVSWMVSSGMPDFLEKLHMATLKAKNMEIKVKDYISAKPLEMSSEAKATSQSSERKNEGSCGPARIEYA", "assay": "StarD7 inhibition assay", "type": "biochemical", "description": "(§1) The compounds in Table 1 and 2 were assayed for their ability to inhibit PC-TP and StarD10, respectively, using a known assay method (see Wagle et al., 2008. Anal. Biochem. 383:85-92, which is incorporated herein by reference in its entirety). Further, certain compounds were also tested for their ability to inhibit StarD7 (see Table 2)."}, "[2]": {"target": "T2, StarD10 (Homo sapiens, UniProt Q9Y365)", "T2 sequence (Q9Y365 1-291)": "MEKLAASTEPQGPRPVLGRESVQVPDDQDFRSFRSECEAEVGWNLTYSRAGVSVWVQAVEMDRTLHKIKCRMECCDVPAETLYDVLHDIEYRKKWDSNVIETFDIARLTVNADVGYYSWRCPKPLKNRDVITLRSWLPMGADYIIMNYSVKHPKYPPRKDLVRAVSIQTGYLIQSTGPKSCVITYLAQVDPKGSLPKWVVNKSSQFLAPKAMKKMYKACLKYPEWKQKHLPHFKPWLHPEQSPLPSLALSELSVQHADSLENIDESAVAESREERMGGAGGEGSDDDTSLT", "assay": "StarD10 inhibition assay", "type": "biochemical", "description": "as §1"}, "[3]": {"target": "T3, purified recombinant PC-TP (Homo sapiens, UniProt Q9UKL6)", "T3 sequence (Q9UKL6 1-214)": "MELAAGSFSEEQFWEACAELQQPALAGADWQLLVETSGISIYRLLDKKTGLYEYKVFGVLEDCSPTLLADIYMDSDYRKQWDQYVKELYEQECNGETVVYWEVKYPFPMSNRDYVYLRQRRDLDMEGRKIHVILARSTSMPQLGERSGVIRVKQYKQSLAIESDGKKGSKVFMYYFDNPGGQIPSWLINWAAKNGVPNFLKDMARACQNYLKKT", "assay": "Displacement assay of PC-TP using pyrene-labeled PC", "type": "binding", "description": "Competition between the small molecule inhibitors and fluorescent pyrene-labeled phosphatidylcholine (PyrPC) for binding to PC-TP was measured using Pyr-PC fluorescent vesicles quenched with tetracyanoquinodimethane (TCNQ) (Lemmetyinen H. et al. 1989). Upon mixing of quenched Pyr-PC vesicles with purified recombinant PC-TP, the rise in Pyr-PC fluorescence reflects binding of fluorescently labeled phosphatidylcholine molecules to the active site of PC-TP. If the small molecule inhibitors enter the active site and prevent binding of phosphatidylcholine to PC-TP by competing the Pyr-PC, this should reduce the observed increase in Pyr-PC fluorescence.\nThe fluorescence of PyrPC monomer was measured at 392 nm on SpectraMax M5 plate-reader with excitation was set at 345 nm. Pyrene-labeled PC vesicles contained PyrPC, egg PC, and TCNQ in a molar ratio of 40:20:60. For PC and PyrPC competition assays, we used unlabeled PC vesicles composed of egg PC and TCNQ in a molar ratio of 55:45 or PC vesicles of varied lipid concentrations and PyrPC vesicles quenched with TCNQ (55:45). […] To determine the affinity of eggPC compared to PyrPC, we varied the concentration of egg PC in the assay as follows: 5, 11, 22, 27, 33, and 44 μM, and a fixed amount of PyrPC (44 μM). […] In the displacement assay, the increase in pyrene monomer fluorescence (ΔF) is proportional to the amount of [Pyr], pyrene-labeled PC bound to PC-TP. The maximal fluorescence increase (ΔFmax) at pyrene monomer emission peak (˜380-394 nm) is observed in the absence of inhibitor ([inh]=0) or unlabeled lipid ([PC]=0). The fluorescence reading of wells with PyrPC vesicles alone and Pyr-PC vesicles with inhibitor (highest background fluorescence) were used as control and subtracted as background.\nAs described in Van Paridon et al. 1987, by plotting ΔF as a function of ΔF·[inh]/[Pyr] […] Therefore, Krel (Compound 4/PC) can be calculated as Krel (Compound 4/PyrPC)/Krel (PC/PyrPC)=0.22."}, "[4]": {"target": "T4, PC-TP (Homo sapiens, UniProt Q9UKL6)", "T4 sequence (Q9UKL6 1-214)": "T3 sequence (Q9UKL6 1-214)", "assay": "PC-TP inhibition assay (Wagle et al. method)", "type": "biochemical", "details": "Table 1, concentration value", "description": "as §1"}, "[5]": {"test_system": "insulin signaling pathway in cultured primary human hepatocytes", "assay": "Activation of insulin signaling pathway in primary human hepatocytes (immunoblot)", "type": "cell-based", "details": "serum starved hepatocytes, 60 minute exposure, doses of 0.05 and 0.10 μM, no insulin", "description": "Cultured primary human hepatocytes (commercially obtained) were serum starved overnight followed by 60 minute exposure to A) Compound 4 or B) Compound 16 at the indicated concentrations. Inhibitors were dissolved in DMSO. Negative controls included Control (no additions) and DMSO alone. The positive control included DMSO plus insulin (50 nM) for 30 minutes. Cells were harvested and lysates were subjected to immunoblot analyses using antibodies, as indicated."}, "[6]": {"target": "T5, purified recombinant His-tag PC-TP (Homo sapiens, UniProt Q9UKL6)", "T5 sequence (Q9UKL6 1-214)": "T3 sequence (Q9UKL6 1-214)", "assay": "Surface plasmon resonance binding to immobilized PC-TP", "details": "Biacore 3000, CM5 chip, 150 s injection", "description": "Compound 8 was injected into a Biacore 3000 surface plasmon resonance instrument with purified recombinant His-tag PC-TP immobilized to a carboxymethyl dextran 5 ([…]) chip for 150 s and allowed to dissociate. Each sensogram was overlaid and zeroed on the y-axis to the average baseline before injection. The start injection time for each sample was set to zero on the x-axis (see FIG. 2). The KD value was 5.0 μM."}}, "data": [{"smiles": "Cc1cc(C)nc(NS(=O)(=O)c2ccc(NC(=O)NC(=O)c3ccc(Cl)cc3Cl)cc2)n1", "note": "[Compound 4, 2,4-dichloro-N-(4-(N-(4,6-dimethylpynmidin-2-yl)sulfamoyl)phenylcarbamoyl) benzamide]", "values": [{"measurement": "IC50", "setting": "[1]", "result": 63, "unit": "µM"}, {"measurement": "IC50", "setting": "[2]", "result": 12, "unit": "µM"}, {"measurement": "Krel (Compound 4/PC)", "setting": "[3]; calculated as Krel (Compound 4/PyrPC)/Krel (PC/PyrPC)", "result": 0.22}, {"measurement": "Effect on pyrene monomer fluorescence (Pyr-PC binding to PC-TP)", "setting": "[3]; increasing inhibitor concentration", "result": "diminishing fluorescence of pyrene monomer"}, {"measurement": "Krel (Compound 4/PyrPC), relative affinity constant", "setting": "[3]; inhibitor 5-75 μM, PyrPC 36 μM, PC-TP 300 nM, averaged from multiple experiments", "result": "1.1+/−0.36"}, {"measurement": "IC50", "setting": "[4]", "result": 4.1, "unit": "µM"}, {"measurement": "Activation of insulin signaling", "setting": "[5]", "result": "activated insulin signaling"}]}, {"smiles": "Cc1cc(C)nc(NS(=O)(=O)c2ccc(NC(=O)N(C)C(=O)c3ccc(Cl)cc3Cl)cc2)n1", "note": "[Compound 15, 2,4-dichloro-N-(4-(N-(4,6-dimethylpyrimidin-2-yl)sulfamoyl)phenylcarbamoyl)-N-methylbenzamide]", "values": [{"measurement": "IC50", "setting": "[2]", "result": 17, "unit": "µM"}, {"measurement": "IC50", "setting": "[4]", "result": 8, "unit": "µM"}]}, {"smiles": "Cc1cc(C)nc(NS(=O)(=O)c2cccc(NC(=O)NC(=O)c3ccc(Cl)cc3Cl)c2)n1", "note": "[Compound 8, 2,4-dichloro-N-(3-(N-(4,6-dimethylpyrimidin-2-yl)sulfamoyl)phenylcarbamoyl) benzamide]", "values": [{"measurement": "Kd", "setting": "[6]", "result": 5, "unit": "µM"}, {"measurement": "IC50", "setting": "[2]", "result": 14, "unit": "µM"}, {"measurement": "IC50", "setting": "[4]", "result": 6.5, "unit": "µM"}]}, {"smiles": "O=C(Nc1cc(Cl)cc(Cl)c1)C(Sc1cccc[n+]1[O-])c1ccccc1", "note": "(stereo not shown) [Compound 16, 2-(2-(3,5-dichlorophenylamino)-2-oxo-1-phenylethylthio)pyridine 1-oxide]", "values": [{"measurement": "IC50", "setting": "[1]", "result": 66, "unit": "µM"}, {"measurement": "IC50", "setting": "[2]", "result": 20, "unit": "µM"}, {"measurement": "IC50", "setting": "[4]", "result": 3.6, "unit": "µM"}, {"measurement": "Activation of insulin signaling", "setting": "[5]", "result": "activated insulin signaling"}]}]}
